Reference: patent US20010006969A1, “PYRIMIDINE NUCLEUS-CONTAINING COMPOUND AND A MEDICAMENT CONTAINING THE SAME FOR A BLOOD OXYGEN PARTIAL PRESSURE AMELIORATION, AND A METHOD FOR PREPARING THE SAME” (priority 1997, published 2001)
Where a name gives a salt, the structure may show the parent alone.

SMILES	melting point
C=CCNc1nc(NC(=O)N2CCCC2)c2scc(C)c2n1 [Example 98, 2-Allylamino-7-methyl-4-(1-pyrrolidinylcarbonyl)aminothieno[3,2-d]pyrimidine]	98 to 101 °C
C=CCNc1nc(NN2CCCCC2)nc2ccc([N+](=O)[O-])cc12 [Example 37, 4-Allylamino-6-nitro-2-piperidinoaminoquinazoline]	221 to 222 °C
C=CCNc1nc(NCCN)nc2ccc([N+](=O)[O-])cc12 [Example 20, 4-Allylamino-2-(2-aminoethylamino)-6-nitroquinazoline]	126 to 128 °C
C=CCNc1nc(NCCC)nc2c(C)csc12 [Example 86, 4-Allylamino-7-methyl-2-propylaminothieno[3,2-d] pyrimidine]	74 to 75 °C
C=CCNc1nc(NC(=O)NCCC)nc2ccc([N+](=O)[O-])cc12 [Example 45, 4-Allylamino-6-nitro-2-(propylcarbamoyl)aminoquinazoline]	254 to 255 °C
C=CCNc1nc(NC/C=C/C)nc2ccc([N+](=O)[O-])cc12 [Example 30, 4-Allylamino-2-(trans-2-butenylamino)-6-nitroquinazoline]	188 to 189 °C
C=CCNc1nc(NC(C)(C)C)c2cc([N+](=O)[O-])ccc2n1 (as salt: hydrochloride)	208 to 209 °C
C=CCNc1nc(NCCCC)c2cc([N+](=O)[O-])ccc2n1 [Example 24, 2-Allylamino-4-butylamino-6-nitroquinazoline]	214 to 215 °C
C=CCNc1nc(NCC=C)c2scc(-c3ccccc3)c2n1 [Example 110, 2,4-Diallylamino-7-phenylthieno[3,2-d]pyrimidine]	98 to 100 °C
C=CCNC(=O)Nc1nc(NCC=C)nc2c(C)csc12 [Example 96, 2-Allylamino-4-(allylcarbamoyl)amino-7-methylthieno[3,2-d] pyrimidine]	164 to 165 °C
C=CCNc1nc(NCC)nc2ccc([N+](=O)[O-])cc12 [Example 17, 4-Allylamino-2-ethylamino-6-nitroquinazoline]	227 to 228 °C
C=CCNc1nc(NCCOC)nc2ccc([N+](=O)[O-])cc12 [Example 8, 4-Allylamino-2-(2-methoxyethylamino)-6-nitroquinazoline]	164 to 165 °C
C=CCNc1nc(NC(C)C=C)c2cc([N+](=O)[O-])ccc2n1 (stereo not drawn) [Example 63, 2-Allylamino-4-(1-methyl-2-propenylamino)-6-nitroquinazoline]	172 to 173 °C
C=CCNc1nc(NCC=C)c2cc(N)ccc2n1 [Example 14, 2,4-Diallylamino-6-aminoquinazoline]	212 to 215 °C
C=CCNc1nc(NCCCCCCCCCCCC)c2cc([N+](=O)[O-])ccc2n1 [Example 47, 2-Allylamino-4-dodecylamino-6-nitroquinazoline]	154 to 155 °C
C=CCNc1nc(NC(=O)NC(C)(C)C)c2scc(C)c2n1 (as salt: hydrochloride)	192 to 194 °C
C=CCNc1nc(NC(=O)C(C)(C)C)c2scc(C)c2n1 [Example 90, 2-Allylamino-7-methyl-4-pivaloylaminothieno[3,2-d] pyrimidine]	88 to 89 °C
C=CCNc1nc(NNC(C)(C)C)c2scc(C)c2n1 [Example 89, 2-Allylamino-4-(2-t-butylhydrazino)-7-methylthieno[3,2-d] pyrimidine]	105 to 107 °C

SMILES	melting point
C=CCNc1nc(NCc2ccccn2)nc2ccc([N+](=O)[O-])cc12 [Example 54, 4-Allylamino-6-nitro-2-(2-pyridylmethylamino)quinazoline]	202 to 203 °C
C=CCNc1nc(NCCC(=O)N2CCCCC2)nc2ccc([N+](=O)[O-])cc12 [Example 53, 4-Allylamino-6-nitro-2-[2-(piperidinocarbonyl)ethylamino] quinazoline]	178 to 179 °C
C=CCNc1nc(NCC(C)(C)C)c2scc(C)c2n1 [Example 67, 2-Allylamino-7-methyl-4-neopentylaminothieno[3,2-d] pyrimidine]	90 to 92 °C
C=CCNc1nc(NC(=O)NCCCC)c2scc(C)c2n1 [Example 97, 2-Allylamino-4-(butylcarbamoyl)amino-7-methylthieno[3,2-d] pyrimidine]	141 °C
C=CCNc1nc(NCc2ccccc2)c2scc(C)c2n1 [Example 69, 2-Allylamino-4-benzylamino-7-methylthieno[3,2-d] pyrimidine]	97 to 98 °C
C=CCNc1nc(N(CC=C)CC=C)c2scc(C)c2n1 (as salt: hydrochloride) [Example 71, 2-Allylamino-4-diallylamino-7-methylthieno[3,2-d] pyrimidine hydrochloride]	76 to 78 °C (dec.)
C=CCNc1nc(NC2CCCCC2)c2scc(C)c2n1 (as salt: hydrochloride) [Example 70, 2-Allylamino-4-cyclohexylamino-7-methylthieno[3,2-d] pyrimidine hydrochloride]	140 to 142 °C
C#CCNc1nc(NCC=C)nc2c(C)csc12 [Example 99, 2-Allylamino-7-methyl-4-(2-propynylamino)thieno[3,2-d] pyrimidine]	95 to 96 °C
C=CCNc1nc(NCC=C)c2scc(Br)c2n1 [Example 111, 2,4-Diallylamino-7-bromothieno[3,2-d]pyrimidine]	87 to 88 °C
C=CCNc1nc(NCCCCCCCCCCCC)nc2ccc([N+](=O)[O-])cc12 [Example 48, 4-Allylamino-2-dodecylamino-6-nitroquinazoline]	148 to 155 °C
C=CCNc1nc(NC(C)C=C)nc2ccc([N+](=O)[O-])cc12 (stereo not drawn) [Example 65, 4-Allylamino-2-(1-methyl-2-propenylamino)-6-nitroquinazoline]	123 to 124 °C
C=CCNc1nc(NCCCCCCC)nc2ccc([N+](=O)[O-])cc12 [Example 36, 4-Allylamino-2-heptylamino-6-nitroquinazoline]	173 to 174 °C
C=CCNc1nc(NCC(=C)C)c2scc(C)c2n1 [Example 100, 2-Allylamino-7-methyl-4-(2-methyl-2-propenylamino)thieno[3,2-d]pyrimidine]	83 °C
C=CCNc1nc(NCc2ccccc2)c2cc([N+](=O)[O-])ccc2n1 [Example 12, 2-Allylamino-4-benzylamino-6-nitroquinazoline]	235 to 236 °C
C=CCNc1nc(NC(=O)OCC(C)C)c2cc([N+](=O)[O-])ccc2n1 [Example 43, 2-Allylamino-4-(2-methylpropoxycarbonyl)amino-6-nitroquinazoline]	148 to 149 °C
C=CCNc1nc(NCC=C(C)C)c2cc([N+](=O)[O-])ccc2n1 [Example 59, 2-Allylamino-4-(3-methyl-2-butenylamino)-6-nitroquinazoline]	209 to 210 °C
C=CC(C)Nc1nc(NC(C)C=C)c2cc([N+](=O)[O-])ccc2n1 (stereo not drawn) [Example 64, 2,4-Bis(1-methyl-2-propenylamino)-6-nitroquinazoline]	122 to 125 °C
C=CCNc1nc(NC23CC4CC(CC(C4)C2)C3)c2cc([N+](=O)[O-])ccc2n1 [Example 52, 4-(1-Adamantylamino)-2-allylamino-6-nitroquinazoline]	224 to 225 °C
